Data on three compounds can be found in paper PMC11089204 (Frontiers in Pharmacology, 2024).

The Ki is the equilibrium dissociation constant of an inhibitor or competing ligand from its target. What is called EC50 is the concentration giving half of the maximal effect.

Each structure is given as a SMILES string.

In one data set the target is T1, human 5-HT2C receptor (Homo sapiens, UniProt P28335).
T1 construct: expressed in transfected cells; host or cells: HEK 293 membrane preparations
Kind of data set: biochemical. As to conditions: HEK 293 membranes, [3H]mesulergine; read-out: h5-HT2C Receptor binding Ki ± SD.

The conditions of data set [1]: cited from earlier work; for fraction of administered psilocybin dose excreted in urine: oral psilocybin, within 24 h (time not stated for 4-HIAA).
The target in data set [2] is T2, human 5-HT2A receptor (Homo sapiens, UniProt P28223). Description: 5-HT activation potency (IP1 accumulation), 5-HT2A. The class given is cell-based. Details: expressed in transfected cells. As to conditions: NIH/3T3 cells, read-out: h5-HT2A Activation potency EC50 ± SD. On the procedure: NIH/3T3 cells stably expressing the human 5-HT1A, 5-HT2A, and 5-HT2B receptors were seeded at a density of 3,000 cells (5-HT1A and 5-HT2A) or 4,000 cells (5-HT2B) in 384-well plates using Opti-MEM medium from Gibco (ThermoFisher, Life Technologies, Zug, Switzerland). Subsequently, the test compounds were introduced, and the plates were incubated for 90 min at 37°C, followed by a 60 min incubation with Anti-IP1-Cryptate and IP1-d2 at room temperature. The formation of stimulated IP1 was quantified by homogeneous time-resolved fluorescence (HTRF) measurements using a BioTek Synergy H1 microplate reader (Agilent Technologies, Basel, Switzerland). The obtained raw data for receptor activation were subjected to normalization, wherein the baseline signal was set at 0%, and the maximum signal stimulated by 5-HT at the specific receptor was established as 100%.
T2 sequence (P28223 whole entry): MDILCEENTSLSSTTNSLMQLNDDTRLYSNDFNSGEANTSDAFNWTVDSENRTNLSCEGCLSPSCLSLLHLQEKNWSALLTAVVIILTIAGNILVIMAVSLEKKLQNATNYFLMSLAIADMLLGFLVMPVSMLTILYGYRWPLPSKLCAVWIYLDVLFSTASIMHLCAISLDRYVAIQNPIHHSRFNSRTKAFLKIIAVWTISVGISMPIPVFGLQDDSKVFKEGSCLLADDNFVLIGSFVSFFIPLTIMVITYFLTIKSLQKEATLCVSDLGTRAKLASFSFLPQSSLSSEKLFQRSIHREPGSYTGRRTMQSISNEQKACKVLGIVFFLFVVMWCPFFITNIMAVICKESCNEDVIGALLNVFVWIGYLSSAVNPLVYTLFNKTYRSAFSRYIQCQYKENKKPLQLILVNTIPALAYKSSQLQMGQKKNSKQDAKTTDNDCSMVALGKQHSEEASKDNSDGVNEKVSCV

The target in data set [3] is T2, human 5-HT2A receptor. Description: Radioligand receptor binding, 5-HT2A. Details: expressed in transfected cells; host or cells: HEK 293 membrane preparations. The conditions noted are these: HEK 293 membranes, [3H]ketanserin; read-out: h5-HT2A Receptor binding Ki ± SD.
The next data set addresses T3, recombinant CYP1A2 (Homo sapiens, UniProt P05177).
T3 construct: purchased Corning Life Sciences B.V
Description: Incubation with recombinant CYP1A2 enzymes. Type of data set: in vitro ADME. As to conditions: 1,000 nM psilocin, rec. CYP1A2. The protocol: (§1) Corning UltraPool human liver microsomes (HLM) 150 (20 mg/mL), human intestinal microsomes (HIM) pool (10 mg/mL) as well as recombinant human CYP enzymes (with P450 oxidoreductase, OR) including CYP1A2+OR (0.5 nmol), CYP2B6+OR (0.5 nmol), CYP2C8+OR (1.0 nmol), CYP2C9*1+OR (1 nmol), CYP2C19+OR (0.5 nmol), CYP2D6*1+OR (0.5 nmol), CYP2E1+OR + cytochrome b5 (1 nmol), CYP3A4+OR + cytochrome b5 (0.5 nmol), MAO-A (5 mg/mL), MAO-B (5 mg/mL), and UGT1A10 (5 mg/mL) were purchased from Corning Life Sciences B.V (Amsterdam, Netherlands). All microsomes and recombinant enzyme solutions were aliquoted and stored at −80 °C until further use.
(§2) The total volume of the reaction mixture was 500 μL. […] Samples were either directly analyzed by liquid chromatography tandem mass spectrometry (LC-MS/MS) or briefly stored at −20°C until analysis.

The target in the next data set is T4, recombinant CYP2C8 (Homo sapiens, UniProt P10632).
T4 construct: purchased Corning Life Sciences B.V
T4 sequence (P10632 whole entry): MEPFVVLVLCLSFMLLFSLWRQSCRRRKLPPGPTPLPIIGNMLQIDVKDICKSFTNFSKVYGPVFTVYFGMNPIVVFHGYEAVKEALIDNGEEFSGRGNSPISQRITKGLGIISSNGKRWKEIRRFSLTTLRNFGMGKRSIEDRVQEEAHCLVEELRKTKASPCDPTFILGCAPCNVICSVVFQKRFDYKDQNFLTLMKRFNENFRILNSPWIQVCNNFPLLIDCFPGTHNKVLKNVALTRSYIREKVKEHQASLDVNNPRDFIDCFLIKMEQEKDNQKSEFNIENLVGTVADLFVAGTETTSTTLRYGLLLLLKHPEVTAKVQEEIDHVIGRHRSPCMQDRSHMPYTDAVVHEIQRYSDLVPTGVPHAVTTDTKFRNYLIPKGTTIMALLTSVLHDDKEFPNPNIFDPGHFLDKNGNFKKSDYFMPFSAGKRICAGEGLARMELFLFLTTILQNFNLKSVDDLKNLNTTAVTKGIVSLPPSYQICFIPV
Description: Incubation with recombinant CYP2C8 enzymes. Type of data set: in vitro ADME. As to conditions: 1,000 nM psilocin, rec. CYP2C8. On the procedure: as §1, §2

In data set [4] the test system is human liver microsomes (HLM). Kind of data set: Glucuronidation with human liver microsomes. Type of data set: in vitro ADME. As to conditions: 1,000 nM psilocin with HLM and UGT co-factors. On the procedure: as §1, with “use. Co-factors including NADPH regenerating system solution A (25 mM NADP+, 66 mM glucose-6-phosphate, and 66 mM MgCl2 in water), NADPH regenerating system solution B (40 U/mL glucose-6-phosphate dehydrogenase in 5 mM sodium citrate), UGT reaction mix solution A (25 mM uridine 5′-diphospho-glucuronic acid in water), and UGT reaction mix solution B (250 mM Tris-HCl, 40 mM MgCl2, and 0.125 mg/mL alamethicin in water) were also obtained from Corning Life Sciences B.V.” for “use.”
The assay described in section 2.5.1 was adjusted to suit the glucuronidation system. […] HLM were diluted as described in section 2.5.1, while HIM or UGT1A10 enzymes were diluted 1:40 (end concentration […] and 0.125 mg/mL, respectively) in the reaction mix. […]
A general note: Microsomes from liver hold many membrane-bound enzymes, among them those of drug oxidation.

In data set [5] the target is T5, recombinant human UGT1A10 (Homo sapiens, UniProt Q9HAW8).
T5 construct: purchased Corning Life Sciences B.V
T5 sequence (Q9HAW8 26-530): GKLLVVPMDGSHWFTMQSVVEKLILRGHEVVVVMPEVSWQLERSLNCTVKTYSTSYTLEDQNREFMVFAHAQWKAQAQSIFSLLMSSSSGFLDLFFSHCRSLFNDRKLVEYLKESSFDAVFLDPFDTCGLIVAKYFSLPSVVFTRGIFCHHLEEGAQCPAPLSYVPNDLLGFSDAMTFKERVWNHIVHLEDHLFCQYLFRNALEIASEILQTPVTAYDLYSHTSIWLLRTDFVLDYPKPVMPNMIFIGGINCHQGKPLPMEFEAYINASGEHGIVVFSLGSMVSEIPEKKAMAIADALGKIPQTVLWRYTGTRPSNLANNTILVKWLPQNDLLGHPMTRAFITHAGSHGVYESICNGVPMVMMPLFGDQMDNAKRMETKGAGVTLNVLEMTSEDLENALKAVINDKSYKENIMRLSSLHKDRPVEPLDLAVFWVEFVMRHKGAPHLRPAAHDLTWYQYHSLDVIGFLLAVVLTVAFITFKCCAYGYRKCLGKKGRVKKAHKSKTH
Kind of data set: Glucuronidation with recombinant UGT1A10. Type of data set: in vitro ADME. As to conditions: for psilocin concentration (mean ± SD): 1,000 nM psilocin. The protocol: as §1
The assay described in section 2.5.1 was adjusted to suit the glucuronidation system.

Where [6] appears, read: humans, ref Holze et al., 2022a.
[7] abbreviates: humans, single oral dose of 25 mg psilocybin, ref Kolaczynska et al., 2021, Holze et al., 2022a.

T1 sequence (P28335 33-458): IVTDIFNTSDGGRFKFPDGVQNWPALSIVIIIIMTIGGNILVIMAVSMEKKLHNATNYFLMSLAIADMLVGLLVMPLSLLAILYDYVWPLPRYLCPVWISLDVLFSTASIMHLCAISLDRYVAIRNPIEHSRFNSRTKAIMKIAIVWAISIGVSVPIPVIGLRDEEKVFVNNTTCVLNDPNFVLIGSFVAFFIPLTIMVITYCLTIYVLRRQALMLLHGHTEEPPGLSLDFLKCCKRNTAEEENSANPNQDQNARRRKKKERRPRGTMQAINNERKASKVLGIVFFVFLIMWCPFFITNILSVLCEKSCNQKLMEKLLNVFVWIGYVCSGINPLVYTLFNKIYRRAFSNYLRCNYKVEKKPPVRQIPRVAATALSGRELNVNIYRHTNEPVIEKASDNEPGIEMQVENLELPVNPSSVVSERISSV
T3 sequence (P05177 2-516 limits assumed): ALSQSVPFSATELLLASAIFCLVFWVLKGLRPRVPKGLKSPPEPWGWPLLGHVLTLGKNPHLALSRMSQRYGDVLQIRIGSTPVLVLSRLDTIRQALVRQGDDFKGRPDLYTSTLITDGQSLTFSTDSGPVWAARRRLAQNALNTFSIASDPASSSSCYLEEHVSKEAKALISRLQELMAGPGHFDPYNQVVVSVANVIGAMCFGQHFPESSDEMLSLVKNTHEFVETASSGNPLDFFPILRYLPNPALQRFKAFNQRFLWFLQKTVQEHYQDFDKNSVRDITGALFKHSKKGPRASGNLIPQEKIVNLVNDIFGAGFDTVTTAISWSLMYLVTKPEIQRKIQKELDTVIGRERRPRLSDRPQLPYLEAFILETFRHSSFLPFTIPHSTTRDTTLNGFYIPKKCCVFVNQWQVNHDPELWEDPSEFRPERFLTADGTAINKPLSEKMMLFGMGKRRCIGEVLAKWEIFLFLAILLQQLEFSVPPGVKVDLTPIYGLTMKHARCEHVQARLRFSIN

With `O=C(O)Cc1c[nH]c2cccc(O)c12` [4-HIAA, 4-hydroxyindole-3-acetic acid], the Ki on human 5-HT2C receptor and on human 5-HT2A receptor [3] was more than 10 µM in each case. Besides, in data set [1] (setting [6]), the “fraction of administered psilocybin dose excreted in urine” value is on record as “Around 33%”. In data set [1] (humans, ref Holze et al., 2022a, Becker et al., 2022), the “maximal concentrations relative to psilocin (higher)” value is reported as 4–5 fold. Also, the EC50 at human 5-HT2A receptor [2] is more than 10 µM.

As to `OCCc1c[nH]c2cccc(O)c12` [4-HTP, 4-hydroxytryptophol], the Ki on human 5-HT2C receptor and at human 5-HT2A receptor [3] was more than 10 µM each time. Moreover, the EC50 at human 5-HT2A receptor [2] was more than 10 µM.

In the case of `CN(C)CCc1c[nH]c2cccc(O)c12` [psilocin, 4-hydroxy-N,N-dimethyltryptamine], the metabolism of psilocin result on recombinant CYP1A2 and at recombinant CYP2C8 was “did not metabolize” throughout. Moreover, the glucuronidation of psilocin result in data set [4] is “No glucuronidation was observed”. Also, the “psilocin concentration (mean ± SD)” value is 1,029 ± 60 nM in data set [5] (rec. UGT1A10, t = 0 min) and 979 ± 95 nM in data set [5] (rec. UGT1A10, t = 240 min). In addition, the psilocin concentration in data set [5] (absence of UGT1A10, t = 0) stood at 980 ± 77 nM; in data set [5] (absence of UGT1A10, t = 240), 893 ± 91 nM. In addition, in data set [1] (after oral administration, ref Griffiths et al., 2016, Johnson et al., 2017, Holze et al., 2022a), the “time of peak plasma concentration” value is “around 2 h”. Further, the “plasma elimination half-life in humans” value in data set [1] (humans, no reference given) is reported as “approximately 2 h”. In data set [1] (setting [6]), the “fraction of administered psilocybin dose excreted in urine” value is recorded as 1.5%. Also, the “elimination half-life (t1/2)” value in data set [1] (setting [7]) is 2 to 3 h. In addition, the psilocin plasma concentrations in data set [1] (setting [7]) was 15 to 20 ng/mL.
